Each structure is given as a SMILES string.

Data set [1] in a line: [3H]-GPE quantitative receptor autoradiography in coronal brain sections. In kind it is binding, rat. The note with it: 1 hour room temperature, right side neurons absent due to injury, little reaction. As for the experimental part: A histological experiment to locate GPE binding sites within the rat brain employed quantitative receptor autoradiography to locate [3H]-GPE binding in coronal sections of the brain as previously described in Dragunow et al (1988, Brain Research 462, 252-257). Fresh frozen brain sections were cut on a cryostat and stored at -80 deg C. until use. Sections were then thawed and pre-incubated with 50 mM Tris HCl (pH 7.4) for 10 minutes at room temperature (250 μl per section). Sections were then dried and 250 μl per section of 5×10^5 counts/min^-1 of [3H]-GPE also made up in Tris HCl buffer (50 mM, pH 7.4) was added for 1 hour at room temperature. Sections were then washed two times for one minute each in ice-cold Tris-HCl followed by one rinse for 1 minute in ice-cold distilled water. Sections were then dried overnight at 4 deg C. and apposed to [3H] sensitive film for 2 weeks, and then developed to produce autoradiograms.

The target in data set [2] is IGF-1 receptor (Homo sapiens, UniProt P08069). The note with it: cited from earlier work.
Chain of IGF-1 receptor (P08069 31-736 limits assumed): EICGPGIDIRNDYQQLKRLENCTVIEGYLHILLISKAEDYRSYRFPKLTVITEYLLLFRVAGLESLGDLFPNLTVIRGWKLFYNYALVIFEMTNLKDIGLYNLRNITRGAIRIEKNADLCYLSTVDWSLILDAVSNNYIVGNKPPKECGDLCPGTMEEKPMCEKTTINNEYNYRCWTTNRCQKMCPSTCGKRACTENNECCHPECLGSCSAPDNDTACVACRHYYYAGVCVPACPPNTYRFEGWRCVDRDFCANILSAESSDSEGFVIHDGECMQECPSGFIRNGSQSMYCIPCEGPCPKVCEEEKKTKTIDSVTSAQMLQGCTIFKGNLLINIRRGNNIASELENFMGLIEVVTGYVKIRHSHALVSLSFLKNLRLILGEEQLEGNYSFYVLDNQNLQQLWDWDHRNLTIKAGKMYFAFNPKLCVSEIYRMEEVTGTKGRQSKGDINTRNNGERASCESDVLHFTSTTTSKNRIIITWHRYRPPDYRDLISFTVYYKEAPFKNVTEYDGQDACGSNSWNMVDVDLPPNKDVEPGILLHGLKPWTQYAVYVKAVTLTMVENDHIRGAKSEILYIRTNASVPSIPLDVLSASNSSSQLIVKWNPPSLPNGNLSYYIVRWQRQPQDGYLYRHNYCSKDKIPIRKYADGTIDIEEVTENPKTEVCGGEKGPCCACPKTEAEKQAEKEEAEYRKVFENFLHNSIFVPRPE
Chain of IGF-1 receptor (P08069 741-1367 partner limits assumed): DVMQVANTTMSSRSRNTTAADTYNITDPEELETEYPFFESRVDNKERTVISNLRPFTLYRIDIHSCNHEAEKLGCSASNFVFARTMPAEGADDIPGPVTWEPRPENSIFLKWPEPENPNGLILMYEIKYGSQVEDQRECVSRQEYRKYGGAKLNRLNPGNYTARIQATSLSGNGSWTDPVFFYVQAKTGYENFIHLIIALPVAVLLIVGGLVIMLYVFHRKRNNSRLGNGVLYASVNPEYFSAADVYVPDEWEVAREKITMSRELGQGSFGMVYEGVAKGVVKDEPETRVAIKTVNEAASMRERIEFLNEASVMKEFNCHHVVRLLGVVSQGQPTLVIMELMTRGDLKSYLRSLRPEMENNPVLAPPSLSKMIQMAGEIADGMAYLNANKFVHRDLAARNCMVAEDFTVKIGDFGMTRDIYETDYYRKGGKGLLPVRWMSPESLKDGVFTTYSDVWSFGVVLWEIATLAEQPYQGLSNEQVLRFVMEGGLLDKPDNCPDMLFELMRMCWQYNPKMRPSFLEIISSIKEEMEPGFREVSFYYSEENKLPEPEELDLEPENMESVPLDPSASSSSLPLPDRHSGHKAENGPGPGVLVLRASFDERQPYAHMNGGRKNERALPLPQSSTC
Data set [3] concerns neurons in the CA1-2 region of the hippocampus. The format is in vivo, Wistar rats. As for the experimental part: The objective of this study was to compare the effects of treatment with GPE to that of a vehicle given 2 hours after an hypoxic-ischemic injury. The dose range of 2 to 200 μg was chosen to span a range of systemic doses that are greater than that required centrally (see experiment 3).
Unilateral hypoxic-ischemic injury was induced in 21 day old, 45±5 g Wistar rats. The rats underwent unilateral carotid ligation under light halothane anaesthesia.
Following one hour recovery they were placed in an incubator at 34 deg C. 85±5% humidity for one hour before the injury. They were subjected to […] inhalation hypoxia (Fi02.8.0%) and then returned to room temperature (22 deg C.) and normoxia. […]
Surviving and dead neurons were discriminated using the thionin/acid fuchsin staining technique (Guan et al J Cereb Blood Flow Metab. 13:609-616 (1993). The results, in which the height of a point is given by the ratio as a percentage of live neurones in the CA1-2 region on the right side to the number on the left side are shown in FIG. 5. Column A is vehicle, column B is 2 μg of GPE, column C is 20 μg of GPE, and column D is 200 μg of GPE. In this figure, the P value (0.031) was calculated by a method using one way ANOVA comparing many groups after Arcsin transformation.

Data set [4] concerns TH positive neurons of the SNc. Kind of data set: 6-OHDA lesion of medial forebrain bundle, TH neuron number and staining density in SNc (Experiment 6). In kind it is in vivo. The procedure: A paired experimental design was used and the experimenter was blinded to the treatment groups. Eighteen male Wistar rats (50-60 days old, 280-310 g) were used for this study. 6-hydroxy dopamine (6-OHDA) was prepared as 8 μg in a base of 2 μl 0.9% saline containing 1% ascorbic acid. It was administered into the right medial forebrain bundle (MFB) using coordinates of AP +4.7 mm, R 1.6 mm, V -8 mm under anaesthesia of 3% halothane, 6-OHDA was injected into the right MFB using a Hamilton syringe (100 μl with a 30G needle) controlled by a microdialysis infusion pump at an infusion rate of 0.2 μl/minute. The infusion needle was then slowly withdrawn 5 minutes after infusion. The surgery procedures for the intracerebroventricular administration have been described by Guan et al (1993), Journal of Cerebral Blood Flow and Metab, 13, 609-616. Briefly, a guide cannula (21G, 6 mm) was fixed on the top of the dura with coordinates of AP +7.5 mm, R 1.5 mm immediately after the injection of 6-OHDA. Either GPE (3 μg/15 μl) or its vehicle were infused into the right lateral ventricle 2 hours later at an infusion rate of 2 μl/minute (Guan et al (1993)). Rats were then housed in a holding room with food and water ad libitum for the next 2 weeks.
The rats were then deeply anaesthetized with an overdose of pentobarbital and transcardially perfused with normal saline followed by 10% buffered formalin. The brains were removed from the skull and kept in the same fixative for the next 48 hours. A standard paraffin tissue preparation was used to process the tissue so that it could be used for immunohistochemistry. […]
The number of TH positive neurons on both sides of the SNc were counted using light microscopic examination (20×magnification) at three representative levels (AP +4.2, +3.8 mm and […]) (Paxinos, et al (1982) New York: Academic Press).
The average density from the background was also measured. […] The difference in average density between the background and TH immunostaining was calculated and used for data analysis. […]

`NCC(=O)N1CCC[C@H]1C(=O)N[C@@H](CCC(=O)O)C(=O)O` [GPE, gly-pro-glu]: in data set [1], the “[3H]-GPE binding in hippocampus” value is recorded as “left hippocampus has bound the radioactive material”. Moreover, in data set [2], the “binding to the IGF-1 receptor” value was “does not”. Besides, the “loss of neurons in the CA1-2 region of the hippocampus” value in data set [3] (20 μg GPE single intraperitoneal injection 2 hours after injury, 120 hrs, p<0.05) is recorded as “reduced the loss of neurons”. Besides, the “crossing of the blood-brain barrier” value in data set [3] (rat, in vivo) is reported as “can cross the blood-brain barrier”. In addition, in data set [4] (caudal levels, 3 μg GPE, vehicle 16±11.2, mean ±SEM), the “TH immunoreactivity (density of TH immunostaining, R/L)” value was 99.6±27%. In data set [4] (caudal levels, GPE 3 μg, vehicle 16.3±11.5), the “neurons remaining in the ipsilateral SNc” value was “over 60.9±13.0%”. Also, the “TH immunoreactivity (density of TH immunostaining)” value in data set [4] (lesioned (right) side, 3 μg GPE icv 2 hours after 6-OHDA, 2 weeks) was “restored”.

The values are drawn from patent publication US6187906A, “Methods to improve neural outcome” (Aukland Uniservices Limited, priority 1998, dated 2001).
